{"source": "patent US12479825B2", "about": "“Melanocortin subtype-2 receptor (MC2R) antagonists and uses thereof” (Crinetics Pharmaceuticals, Inc., priority 2019, dated 2025)", "data": [{"target": "T1, hMC2 receptor (Homo sapiens, UniProt Q01718)", "T1 construct": "host or cells: CRE-bla-CHO-K1 cells, crude membrane fraction", "T1 sequence (Q01718 whole entry)": "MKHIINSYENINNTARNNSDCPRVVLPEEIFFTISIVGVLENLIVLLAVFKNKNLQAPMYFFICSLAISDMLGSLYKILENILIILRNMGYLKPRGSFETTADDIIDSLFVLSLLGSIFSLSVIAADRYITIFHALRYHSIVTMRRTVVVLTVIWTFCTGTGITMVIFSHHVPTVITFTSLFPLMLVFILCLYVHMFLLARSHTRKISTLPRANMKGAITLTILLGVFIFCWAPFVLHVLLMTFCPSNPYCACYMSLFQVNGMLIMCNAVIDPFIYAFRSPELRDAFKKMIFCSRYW", "T1 sequence (Q8TCY5 whole entry partner)": "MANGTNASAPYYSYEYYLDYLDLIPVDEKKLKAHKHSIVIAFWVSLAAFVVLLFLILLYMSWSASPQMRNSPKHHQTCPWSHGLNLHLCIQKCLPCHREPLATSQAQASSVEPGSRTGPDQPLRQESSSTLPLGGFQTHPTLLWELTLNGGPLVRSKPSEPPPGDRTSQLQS", "assay": "hMC2 membrane binding assay ([125I]ACTH (1-39) Tyr23, SPA)", "settings": "crude hMC2R membranes from CRE-bla-CHO-K1 cells expressing hMC2 receptor and hMRAP; 0.2 nM [125I]ACTH (1-39) Tyr23; 1.5 hours at room temperature; read-out: MC2R binding potency", "experimental": "Crude membrane fractions are prepared from CRE-bla-CHO-K1 cells stably expressing hMC2 receptor and hMRAP accessory protein (Thermo Fisher). The cells are grown to 85-100% confluence on standard tissue culture dishes in GlutaMax DMEM growth media (Gibco) with following additives: 10% dialyzed FBS (Gemini), 0.1 mM NEAA (Gibco), 25 mM HEPES (Gibco), 5 μg/mL blasticidin (Goldbio), 100 μg/mL zeocin (Invitrogen), 600 μg/mL hygromycin (Goldbio). To prepare membranes, cells are scraped and collected in 1× Dulbecco's phosphate buffered saline (Corning) and then pelleted at 1000 RPM's. The cell pellet is reconstituted in membrane preparation buffer (20 mM HEPES, 6 mM MgCl2 and 1 mM EGTA, protease inhibitor tablets (Pierce) adjusted to pH 7.4), homogenized using a dounce homogenizer, and the resulting membrane fraction is pelleted by centrifugation at 12,000 RPM's. The membrane pellet is resuspended in membrane preparation buffer, snap freezed and stored at −80° C. for later use.\nThe hMC2 membrane binding assay utilizes the following components: radiolabel [^125I]ACTH (1-39) Tyr23 (PerkinElmer), wheat germ agglutinin coated PVT SPA beads (PerkinElmer), crude hMC2R membranes, and compounds. Briefly hMC2R membranes are incubated with SPA beads in binding assay buffer (50 mM HEPES, 5 mM MgCl2, 1 mM CaCl2, 0.2% BSA, protease inhibitor tablets (Pierce) adjusted to pH7.4) prior to assay initiation. A dose response of compound (the final concentration of compound is typically 0-10,000 nM), SPA membranes, and [^125I]ACTH (1-39) Tyr23 at a final concentration of 0.2 nM is plated in a 96-well assay plate and allowed to incubate 1.5 hours at room temperature. Assay plates are read using a Top Count NXT and Ki values for compounds are determined using a GraphPad Prism 6 non-linear regression analysis.", "units": {"Ki": "nM"}, "values": [{"smiles": "CCOc1ccc(C(=O)N2CCN(c3ccc(-c4cccnc4OCC)nc3O[C@@H](C)CN)[C@H](CC)C2)c(C(F)(F)F)n1", "note": "[1-22, (2S)-2-({2′-ethoxy-5-[(2R)-4-[6-ethoxy-2-(trifluoromethyl)pyridine-3-carbonyl]-2-ethylpiperazin-1-yl]-[2,3′-bipyridin]-6-yl}oxy)propan-1-amine]", "Ki": "< 10"}, {"smiles": "CCOc1ncccc1-c1ccc(N2CCN(C(=O)N3CCc4cccc(C#N)c43)C[C@H]2CC)c(OCCNC)n1", "note": "[1-23, 1-[(3R)-4-{2′-ethoxy-6-[2-(methylamino)ethoxy]-[2,3′-bipyridin]-5-yl}-3-ethylpiperazine-1-carbonyl]-2,3-dihydro-1H-indole-7-carbonitrile]", "Ki": "< 10"}, {"smiles": "CCOc1ncccc1-c1ccc(N2CCN(C(=O)N3CCc4cccc(C#N)c43)C[C@H]2CC)c(OCCN)n1", "note": "[1-24, 1-[(3R)-4-[6-(2-aminoethoxy)-2′-ethoxy-[2,3′-bipyridin]-5-yl]-3-ethylpiperazine-1-carbonyl]-2,3-dihydro-1H-indole-7-carbonitrile]", "Ki": "< 10"}, {"smiles": "CCOc1ncccc1-c1ccc(N2CCN(C(=O)N3CCc4cc(Cl)cc(C#N)c43)C[C@H]2CC)c(OCCN)n1", "note": "[1-25, 1-[(3R)-4-[6-(2-aminoethoxy)-2′-ethoxy-[2,3′-bipyridin]-5-yl]-3-ethylpiperazine-1-carbonyl]-5-chloro-2,3-dihydro-1H-indole-7-carbonitrile]", "Ki": "< 10"}, {"smiles": "CCOc1ncccc1-c1ccc(N2CCN(C(=O)N3CCc4cc(Cl)cc(C#N)c43)C[C@H]2CC)c(OCCNC)n1", "note": "[1-26, 5-chloro-1-[(3R)-4-{2′-ethoxy-6-[2-(methylamino)ethoxy]-[2,3′-bipyridin]-5-yl}-3-ethylpiperazine-1-carbonyl]-2,3-dihydro-1H-indole-7-carbonitrile]", "Ki": "< 10"}, {"smiles": "CCOc1ncccc1-c1ccc(N2CCN(C(=O)c3ccc(F)cc3C(F)(F)F)C[C@H]2CC)c(OCCNC)n1", "note": "[1-27, [2-({2′-ethoxy-5-[(2R)-2-ethyl-4-[4-fluoro-2-(trifluoromethyl)benzoyl]piperazin-1-yl]-[2,3′-bipyridin]-6-yl}oxy)ethyl](methyl)amine]", "Ki": "< 10"}, {"smiles": "CCOc1ncccc1-c1ccc(N2CCN(C(=O)c3ccc(Cl)cc3Cl)C[C@H]2CC)c(OCCNC)n1", "note": "[1-28, [2-({5-[(2R)-4-(2,4-dichlorobenzoyl)-2-ethylpiperazin-1-yl]-2′-ethoxy-[2,3′-bipyridin]-6-yl}oxy)ethyl](methyl)amine]", "Ki": "< 10"}, {"smiles": "CCOc1ncccc1-c1ccc(N2CCN(C(=O)c3ccc(F)cc3Cl)C[C@H]2CC)c(OCCNC)n1", "note": "[1-29, [2-({5-[(2R)-4-(2-chloro-4-fluorobenzoyl)-2-ethylpiperazin-1-yl]-2′-ethoxy-[2,3′-bipyridin]-6-yl}oxy)ethyl](methyl)amine]", "Ki": "< 10"}, {"smiles": "CCOc1ncccc1-c1ccc(N2CCN(C(=O)c3ccc(OC)nc3C(F)(F)F)C[C@H]2CC)c(OCCNC)n1", "note": "[1-30, [2-({2′-ethoxy-5-[(2R)-2-ethyl-4-[6-methoxy-2-(trifluoromethyl)pyridine-3-carbonyl]piperazin-1-yl]-[2,3′-bipyridin]-6-yl}oxy)ethyl](methyl)amine]", "Ki": "< 10"}, {"smiles": "CCOc1ncccc1-c1ccc(C2CCN(c3ccc(C(F)(F)F)cc3C#N)CC2)c(OCCNC)n1", "note": "[3-1, 2-(4-(2′-ethoxy-6-(2-(methylamino)ethoxy)-[2,3′-bipyridin]-5-yl)piperidin-1-yl)-5-(trifluoromethyl)benzonitrile]", "Ki": "< 10"}, {"smiles": "CCOc1ncccc1-c1ccc(C2CCN(c3ccc(C(F)(F)F)nc3C#N)CC2)c(OCCNC)n1", "note": "[3-2, 3-(4-{2′-ethoxy-6-[2-(methylamino)ethoxy]-[2,3′-bipyridin]-5-yl}piperidin-1-yl)-6-(trifluoromethyl)pyridine-2-carbonitrile]", "Ki": "< 10"}, {"smiles": "CCOc1ncccc1-c1ccc(N2CCN(C(=O)c3ccc(F)cc3Cl)C[C@H]2CC)c(-c2nnc(CN)[nH]2)n1", "note": "[4-2, 1-(5-{5-[(2R)-4-(2-chloro-4-fluorobenzoyl)-2-ethylpiperazin-1-yl]-2′-ethoxy-[2,3′-bipyridin]-6-yl}-4H-1,2,4-triazol-3-yl)methanamine]", "Ki": "10 to 100"}, {"smiles": "CCOc1ncccc1-c1ccc(N2CCN(C(=O)c3ccc(F)cc3Cl)C[C@H]2CC)c(-c2nnc(N)[nH]2)n1", "note": "[4-3, (R)-(4-(6-(5-amino-4H-1,2,4-triazol-3-yl)-2′-ethoxy-[2,3′-bipyridin]-5-yl)-3-ethylpiperazin-1-yl)(2-chloro-4-fluorophenyl)methanone]", "Ki": "100 to 1000"}]}]}
